Counter-ions that a name gives are not always drawn.

The test system of one test is PMS1. As to the kind of experiment: Mini-Gene Reporter Assay—PMS1 (firefly luciferase mini-gene reporter transiently transfected into HEK293 cells). The format is cell-based. To be noted: Homo sapiens; at 5 uM; mini-gene firefly luciferase reporter in HEK293 cells; read-out: PMS1 % Effect at 5 uM. The method in brief:
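Luminescence (RLU) read-out of exon inclusion: compound dilutions, tested in duplicate, act on transiently transfected HEK293 cells carrying a firefly luciferase reporter fused downstream of the PMS1 skipped-exon region. Potency derived by Levenberg-Marquardt curve fitting, with percent effect at 5 μM.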
In the case of `COc1cc2nc(C)cn2cc1C(=O)Nc1ccc(N2CCC3(CC2)COC(C)CN3)cc1F` (stereo not shown) [Compound 172, N-(2-fluoro-4-(3-methyl-4-oxa-1,9-diazaspiro[5.5]undecan-9-yl)phenyl)-7-methoxy-2-methylimidazo[1,2-a]pyridine-6-carboxamide], the activation at 5 µM fell in the range of 50 to 75%. Same read-out and setting: then `CCOc1cc2nn(C)cc2cc1C(=O)Nc1cnc(NC[C@H]2CCCNC2)nc1` [Compound 450], with under 50%; and `CCOc1cn2nc(C)cc2cc1C(=O)Nc1cnc(N2CCC3(CCCN3)CC2)nc1` [Compound 579], with over 75%; and `CCOc1cc2nn(C)cc2cc1C(=O)Nc1cnc(NCCCN2CCNCC2)cn1` [Compound 362], with under 50%.

`CNCC1CCN(c2ccc(NC(=O)c3cn4cc(C)nc4cc3OC)c(F)c2)C1` (stereo not shown) [Compound 166, N-(2-fluoro-4-(3-((methylamino)methyl)pyrrolidin-1-yl)phenyl)-7-methoxy-2-methylimidazo[1,2-a]pyridine-6-carboxamide]: the activation at 5 µM was under 50%. For the compound `CCOc1cc2nc(C)cn2cc1C(=O)Nc1cnc(N2CC[C@@H](C)[C@@H](NC)C2)cn1` [Compound 671], the activation at 5 µM was under 50%. With `CCOc1cc2nn(C)cc2cc1C(=O)Nc1cnc(NC[C@@H]2CCNC2)cn1` [Compound 364], the activation at 5 µM is 50 to 75%.

As for `CCOc1cc2nn(C)cc2cc1C(=O)Nc1cnc(NCC[C@H]2C[C@H](N)C2)nc1` [Compound 384], the activation at 5 µM was under 50%.

As for `CCOc1cn2nc(C)cc2cc1C(=O)Nc1cnc(NCC2(F)CNCCOC2)cn1` (stereo not shown) [Compound 489], the activation at 5 µM was under 50%. Regarding `CCOc1cc2nn(C)cc2cc1C(=O)Nc1cnc(N2CCC[C@H]3CNC[C@H]32)cn1` [Compound 340], the activation at 5 µM is 50 to 75%. On the same count and under the same terms, under `CCOc1cn2nc(C)cc2cc1C(=O)Nc1cnc(NCC2CNC(C)C2)nc1` (stereo not shown) [Compound 566] stands under 50%. Turning to `CCOc1cc2nn(C)cc2cc1C(=O)Nc1cnc(NCC2CNC(C)(C)C2)nc1` (stereo not shown) [Compound 408], the activation at 5 µM is under 50%. For the compound `CCOc1cn2nc(C)cc2cc1C(=O)Nc1cnc(NCC2(C)CCNC2)cn1` (stereo not shown) [Compound 528], the activation at 5 µM is under 50%.

In the case of `CCOc1cc2nn(C)cc2cc1C(=O)Nc1cnc(N2C[C@@H]3C[C@H]2CN3)nc1` [Compound 467], the activation at 5 µM was under 50%. On to `CCOc1cc2nn(C)cc2cc1C(=O)Nc1cnc(NCc2c(C)nn3c2CNCC3)nc1` [Compound 403], for which the activation at 5 µM is under 50%. The same measure, in the same setting: then `CCOc1cn2nc(C)cc2cc1C(=O)Nc1cnc(N(C)CCNC)nc1` [Compound 599], with under 50%; and `CCOc1cc2nn(C)cc2cc1C(=O)Nc1cnc(N2CCC(NC)C2)cn1` (stereo not shown) [Compound 361], with over 75%; and `CCOc1cc2nc(C)cn2cc1C(=O)Nc1cnc(N2C[C@H]3CNC[C@H]3C2)nc1` [Compound 646], with 50 to 75%. On the same count and under the same terms, then `CCOc1cc2nn(C)cc2cc1C(=O)Nc1cnc(N[C@@H]2CCCNC2)cn1` [Compound 377], with 50 to 75%. On to `CCOc1cc2nc(C)cn2cc1C(=O)Nc1cnc(NCCC2CNCC(C)O2)cn1` (stereo not shown) [Compound 669], for which the activation at 5 µM is under 50%. As for `CCOc1cc2nn(C)cc2cc1C(=O)Nc1cnc(NCC2CCNCCC2(F)F)nc1` (stereo not shown) [Compound 395], the activation at 5 µM is under 50%.

With `COc1cc2nc(C)cn2cc1C(=O)Nc1ccc(N2CCN[C@@H](C(C)C)C2)cc1F` [Compound 142, (S)-N-(2-fluoro-4-(3-isopropylpiperazin-1-yl)phenyl)-7-methoxy-2-methylimidazo[1,2-a]pyridine-6-carboxamide], the activation at 5 µM was over 75%. As for `CCOc1cn2nc(C)cc2cc1C(=O)Nc1cnc(NCC2(F)CC(N)C2)cn1` (stereo not shown) [Compound 493], the activation at 5 µM is under 50%. On the same count and under the same terms, then `CCOc1cc2nn(C)cc2cc1C(=O)Nc1cnc(N2CCNC(C)C2)nc1` (stereo not shown) [Compound 487], with over 75%. The same measure, in the same setting: under `CCOc1cc2nn(C)cc2cc1C(=O)Nc1cnc(N2C[C@@H](F)C[C@H]2CNC)cn1` [Compound 342] stands under 50%; under `CCOc1cc2nn(C)cc2cc1C(=O)Nc1cnc(N2CCNC(C(F)F)C2)nc1` (stereo not shown) [Compound 382], under 50%.

For `CCOc1cc2nn(C)cc2cc1C(=O)Nc1cnc(NCC2NCCc3sccc32)nc1` (stereo not shown) [Compound 423], the activation at 5 µM was under 50%. On to `Cc1cn2cc(C(=O)Nc3ccc(N4C[C@H]5CC[C@@H](C4)N5)cc3F)ncc2n1` [Compound 106, N-(4-((1R,5S)-3,8-diazabicyclo[3.2.1]octan-3-yl)-2-fluorophenyl)-2-methylimidazo[1,2-a]pyrazine-6-carboxamide], for which the activation at 5 µM was under 50%. For the compound `CCNCC1CCN(c2cnc(NC(=O)c3cn4cc(C)nc4cc3OCC)cn2)CC1` [Compound 687], the activation at 5 µM is over 75%. Still for that read-out and setting: under `CCOc1cc2nn(C)cc2cc1C(=O)Nc1cnc(NC2C=CCNC2)cn1` (stereo not shown) [Compound 324] stands under 50%. As for `CCOc1cn2nc(C)cc2cc1C(=O)Nc1cnc(NCC2CCCNC2)nc1` (stereo not shown) [Compound 598], the activation at 5 µM is under 50%.

As for `CCOc1cc2nc(C)cn2cc1C(=O)Nc1cnc(N2CCNC[C@H]2C)cn1` [Compound 692], the activation at 5 µM is over 75%. Still for that read-out and setting: under `COc1cc2nc(C)cn2cc1C(=O)Nc1ccc(N2CC(C)NCC2C)cc1F` (stereo not shown) [Compound 163, N-(4-(2,5-dimethylpiperazin-1-yl)-2-fluorophenyl)-7-methoxy-2-methylimidazo[1,2-a]pyridine-6-carboxamide] stands over 75%; under `CCOc1cc2nn(C)cc2cc1C(=O)Nc1cnc(N2CCOC3(CCNCC3)C2)cn1` [Compound 357], under 50%.

`CCOc1cc2nn(C)cc2cc1C(=O)Nc1cnc(N2CCC(NC)CC2)nc1` [Compound 473]: the activation at 5 µM is under 50%. As to `CCOc1cn2nc(C)cc2cc1C(=O)Nc1cnc(N2CCOC3(CCCNC3)C2)nc1` (stereo not shown) [Compound 613], the activation at 5 µM is under 50%. The same measure, in the same setting: under `CCNCC1CCN(c2ncc(NC(=O)c3cc4cc(C)nn4cc3OCC)cn2)CC1` [Compound 623] stands under 50%; under `CCOc1cc2nc(C)cn2cc1C(=O)Nc1ccc(N2CC3CNCC3C2)nn1` (stereo not shown) [Compound 748, (7-ethoxy-N-(6-(hexahydropyrrolo[3,4-c]pyrrol-2(1H)-yl)pyridazin-3-yl)-2-methylimidazo[1,2-a]pyridine-6-carboxamide formate], over 75%. As to `CCOc1cc2nn(C)cc2cc1C(=O)Nc1cnc(N2CCNCC2)nc1` [Compound 477], the activation at 5 µM lay within 50 to 75%.

Turning to `CCOc1cc2nn(C)cc2cc1C(=O)Nc1cnc(NCC23CC(N)(C2)C3)nc1` [Compound 406], the activation at 5 µM is under 50%. The same measure, in the same setting: under `CCOc1cn2nc(C)cc2cc1C(=O)Nc1cnc(N(C)CC2CCCN2)nc1` (stereo not shown) [Compound 581] stands under 50%.

Staying with this test, now noted: Homo sapiens; mini-gene firefly luciferase reporter in HEK293 cells.
The term IC50 denotes the concentration needed to halve the response being measured. Low readings indicate greater potency in that assay, high ones weaker potency in that assay. In turn, `CCOc1cc2nc(C)cn2cc1C(=O)Nc1ccc(N2CCC(NC)C2)nn1` (stereo not shown) [Compound 280] returned an IC50 of under 1000 nM.

`CCOc1cc2nc(C)cn2cc1C(=O)Nc1ccc(N2C[C@@H]3C[C@H]2CN3)nn1` [Compound 285] returned an IC50 of 1000 to 10000 nM. Still for that read-out and setting: under `COc1cc2nc(C)cn2cc1C(=O)Nc1ccc(N(C)C2CNC2)cc1F` [Compound 180, N-(4-(azetidin-3-yl(methyl)amino)-2-fluorophenyl)-7-methoxy-2-methylimidazo[1,2-a]pyridine-6-carboxamide] stands under 1000 nM.

With `CCOc1cc2nc(C)cn2cc1C(=O)Nc1ccc(N2CCCC(CNC)C2)nn1` (stereo not shown) [Compound 278], the IC50 is 1000 to 10000 nM. On the same count and under the same terms, under `CCOc1cc2nc(C)cn2cc1C(=O)Nc1ccc(N(C)[C@@H]2C[C@H]3CC[C@@H](C2)N3)nn1` [Compound 256] stands 1000 to 10000 nM; under `CCOc1nc2nn(C)cc2cc1C(=O)Nc1ccc(N2CCNCC2)cn1` [Compound 730, 6-ethoxy-2-methyl-N-(5-(piperazin-1-yl)pyridin-2-yl)-2H-pyrazolo[3,4-b]pyridine-5-carboxamide], 1000 to 10000 nM; under `Cc1cn2cc(C(=O)Nc3ccc(N4CCNCC4)nn3)c(OC3CCC3)cc2n1` [Compound 205, 7-cyclobutoxy-2-methyl-N-(6-(piperazin-1-yl)pyridazin-3-yl)imidazo[1,2-a]pyridine-6-carboxamide hydrochloride], under 1000 nM. The same measure, in the same setting: then `COc1cn2nc(C)cc2cc1C(=O)Nc1ccc(N2CCN[C@@H](C)C2)nn1` [Compound 726, (S)-6-methoxy-2-methyl-N-(6-(3-methylpiperazin-1-yl)pyridazin-3-yl)pyrazolo[1,5-a]pyridine-5-carboxamide hydrochloride], with 1000 to 10000 nM. As to `CCOc1cc2nc(C)cn2cc1C(=O)Nc1ccc(N2CC3CCCC(C2)NC3)nn1` (stereo not shown) [Compound 248], the IC50 was 1000 to 10000 nM. `CCOc1cc2nc(C)cn2cc1C(=O)Nc1cnc(N2C[C@@H](C)N[C@@H](C)C2)cn1` [Compound 719, N-(5-((3S,5R)-3,5-dimethylpiperazin-1-yl)pyrazin-2-yl)-7-ethoxy-2-methylimidazo[1,2-a]pyridine-6-carboxamide]: the IC50 was under 1000 nM. Same read-out and setting: then `CCOc1cc2nc(C)cn2cc1C(=O)Nc1ccc(N2CCC(CNC)CC2)nn1` [Compound 270], with 1000 to 10000 nM; and `CCOc1cc2nc(C)cn2cc1C(=O)Nc1ccc(N2CCNC3CC32)nn1` (stereo not shown) [Compound 258], with 1000 to 10000 nM. On the same count and under the same terms, under `CCOc1cc2nc(C)cn2cc1C(=O)Nc1cc(C)c(N2CCN[C@@H](C)C2)nn1` [Compound 741, (S)-7-ethoxy-2-methyl-N-(5-methyl-6-(3-methylpiperazin-1-yl)pyridazin-3-yl)imidazo[1,2-a]pyridine-6-carboxamide formate] stands 1000 to 10000 nM; under `Cc1cn2cc(C(=O)Nc3ccc(N4CCNCC4)cc3F)cc(F)c2n1` [Compound 108, 8-fluoro-N-(2-fluoro-4-(piperazin-1-yl)phenyl)-2-methylimidazo[1,2-a]pyridine-6-carboxamide hydrochloride], 1000 to 10000 nM.

Values taken from patent publication US20250066389A1, “HETEROCYCLIC AMIDES AND METHODS OF USING THE SAME” (Rgenta Therapeutics, Inc., priority 2021, published 2025).
